Data: US9605047B2, “Compositions and methods for treating hypertension” (The Brigham and Women's Hospital, Inc., priority 2012, dated 2017)

Experiments:
HPAECs [1] = assay: Amplex Red assay of hydrogen peroxide levels in HPAECs; type: cell-based, human; conditions: aldosterone 10^−7 mol/L, 24 h, HPAECs; vs V 65.4±1.6; n=3
Experimental: Human pulmonary artery endothelial cells (HPAECs) (Lonza) (male donors) were grown to confluence using phenol-free EGM-2 medium supplemented with 5% fetal bovine serum at 37° C., 5% CO2. Cells were passaged twice-weekly using 0.5% trypsin/EDTA, and experiments were performed on cells from passages 4-10. Aldosterone (Steraloids) and ET-1 (1-100 nM) (Sigma-Aldrich) were dissolved in dimethylsufloxide (10 nmol/L) and deoxygenated water, respectively, which served as vehicle controls. Cells were treated with aldosterone (10^−−10^−7 mol/L) for 24 h and in selected experiments co-incubated with the mineralocorticoid receptor inhibitor spironolactone (10 μM/l) (Sigma-Aldrich).

[2] = system: NOX4 and NOX4 subunit p22^phox; assay: NOX4 and p22phox protein levels in HPAECs by Western analysis; type: cell-based, human; conditions: n=3
Experimental: Cell culture and treatments. Human pulmonary artery endothelial cells (HPAECs) (Lonza) (male donors) were grown to confluence using phenol-free EGM-2 medium supplemented with 5% fetal bovine serum at 37° C., 5% CO2. Cells were passaged twice-weekly using 0.5% trypsin/EDTA, and experiments were performed on cells from passages 4-10. Aldosterone (Steraloids) and ET-1 (1-100 nM) (Sigma-Aldrich) were dissolved in dimethylsufloxide ([…]) and deoxygenated water, respectively, which served as vehicle controls. Cells were treated with aldosterone (10^−−10^−7 mol/L) for 24 h and in selected experiments co-incubated with the mineralocorticoid receptor inhibitor spironolactone (10 μM/l) (Sigma-Aldrich).
(§1) Immunoblotting. Proteins were size fractionated electrophoretically using SDS-PAGE and transferred to polyvinylidene fluoride membranes. The membranes were incubated with anti-ETA (Santa Cruz Biotechnology), anti-ETB (Santa Cruz Biotechnology), anti-NOX4 (Santa Cruz Biotechnology), anti-p22P^phox (Santa Cruz), anti-eNOS (Cell Signaling), anti-PGC-1α (Santa Cruz Biotechnology), and anti-SF (Santa Cruz Biotechnology) antibodies overnight at 4° C. and visualized using the ECL detection system (Amersham Biosciences). In experiments to assess ETA expression, purified ETA protein (Novus Biological) was loaded to serve as an internal control.

[3] = system: ETB-dependent NO. generation in HPAECs; assay: NO. metabolites (NO2−, NO3−) in ET-1-stimulated HPAECs; type: cell-based, human; conditions: n=3
Experimental: Cell culture and treatments. Human pulmonary artery endothelial cells (HPAECs) (Lonza) (male donors) were grown to confluence using phenol-free EGM-2 medium supplemented with 5% fetal bovine serum at 37° C., 5% CO2. Cells were passaged twice-weekly using 0.5% trypsin/EDTA, and experiments were performed on cells from passages 4-10. Aldosterone (Steraloids) and ET-1 (1-100 nM) (Sigma-Aldrich) were dissolved in dimethylsufloxide (10 nmol/L) and deoxygenated water, respectively, which served as vehicle controls. Cells were treated with aldosterone (10^−−10^−7 mol/L) for 24 h and in selected experiments co-incubated with the mineralocorticoid receptor inhibitor spironolactone (10 μM/l) (Sigma-Aldrich).
NO. metabolites. Nitrite (NO2^−) and nitrate (NO3^−) were measured in cell culture medium containing 2% fetal bovine serum and L-arginine (1 mmol/l) (Sigma-Aldrich) by 1(H)-naphthotriazole fluorescence (Cayman) as previously reported.^1 To measure NO2^− levels in whole lung tissue, lung specimens were harvested from rats and snap frozen in liquid nitrogen.

eNOS = eNOS activity ([14C] arginine, NOS activity kit) in HPAECs; type: cell-based, human; conditions: ET-1 (10 nM) stimulated HPAECs, without or with aldosterone; n=3
Experimental: eNOS activity. eNOS activity was measured using the NOS activity kit (Cayman) according to the manufacturer's instructions with some modifications. Cells were washed with PBS containing 1 mM EDTA, transferred to a microcentrifuge tube, and centrifuged at 14,000×g at 4° C. for 2 min. The supernatant was decanted and homogenization buffer (250 mM Tris-HCl, pH 7.4, 6 μM BH4, 2 μM flavin adenine dinucleotide, and 2 μM flavin adenine mononucleotide) was added to the cell pellets. […] The samples were then centrifuged at 14,000×g for 30 seconds and radioactivity of the eluant was quantified in a liquid scintillation counter (Beckman-Coulter).

HPAECs [4] = assay: 3-Nitrotyrosine immunohistochemistry in HPAECs; type: cell-based, human; conditions: V 24.1±3.3, n=5
Experimental: 3-Nitrotyrosine immunohistochemistry. Cells grown to confluence on glass chamber slides were fixed following treatments and anti-3-nitrotyrosine immunohistochemistry (Santa Cruz Biotechnology) was performed using the 3,3′-diaminobenzidine substrate method (Vector laboratories) as described previously.^1

ETA, ETB, eNOS = assay: ETA, ETB and eNOS protein levels in HPAECs by Western analysis; type: cell-based, human
Experimental: as §1, with “anti-[…]^phox” for “anti-p22P^phox”

[5] = biological target: T1, ETB cysteinyl thiols (region containing Cys405) (Homo sapiens, UniProt P24530); assay: Western analysis to detect ETB disulfide bond formation in HPAECs; type: cell-based; conditions: aldosterone 10^−7 mol/L 24 h or H2O2 200 μmol/L 20 min
T1 construct: endogenous in cells; host or cells: HPAECs (Lonza)
T1 sequence (P24530 27-442): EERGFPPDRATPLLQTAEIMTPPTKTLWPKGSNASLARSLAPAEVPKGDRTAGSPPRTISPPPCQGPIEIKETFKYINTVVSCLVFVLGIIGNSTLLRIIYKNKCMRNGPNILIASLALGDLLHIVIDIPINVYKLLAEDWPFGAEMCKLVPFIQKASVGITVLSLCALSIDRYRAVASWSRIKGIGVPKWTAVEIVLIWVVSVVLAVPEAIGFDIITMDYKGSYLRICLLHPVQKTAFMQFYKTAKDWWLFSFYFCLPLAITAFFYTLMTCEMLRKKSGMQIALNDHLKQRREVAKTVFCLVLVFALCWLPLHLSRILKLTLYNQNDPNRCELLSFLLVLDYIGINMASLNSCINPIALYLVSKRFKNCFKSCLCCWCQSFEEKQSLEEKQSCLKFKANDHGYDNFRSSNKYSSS
Experimental: Western analysis to detect ETB disfulfide bond formation. Western analysis to detect ETB disulfide bond formation was performed as described previously.^7 Briefly, protein extracts from cells were lysed in alkylating buffer containing 0.1 M Tris-HCL, pH 6.8, 1% SDS, 100 mM iodoacetamide, and 100 mM N-ethylmaleimide, and sonicated on ice for 5 min followed by a 30-min incubation at 25° C. Alkylated proteins were then precipitated with acetone. Proteins were resuspended in 50 μl of 0.1 M Tris-HCl, pH 7.4, 1% SDS; and disulfides were reduced with 5 mM tris(2-carboxyethyl)phosphine hydrochloride (TCEP). Following a 20-min incubation at 25° C., TCEP was removed with a Micro Bio-Spin™ column 6 (Bio-Rad), and 1% SDS was added to the eluant. The cysteines previously participating in a disulfide bond, now reduced, were labeled with 1 mM polyethylene glycol-conjugated maleimide (molecular mass 10 kDa) (Fluka). After a 1-h incubation at 25° C., proteins were precipitated with acetone, resuspended in 50 μl of non-reducing SDS electrophoresis buffer, and boiled for 10 min. Protein samples were then size-fractionated electrophoretically using SDS-PAGE, and transferred to a polyvinylidene fluoride membrane. […]

[6] = system: ETB region containing Cys405; assay: ETB sulfenic acid (R-SOH) by immunoprecipitation and immunoblot in HPAECs; type: cell-based, human; conditions: aldosterone 10^−7 mol/L, 24 h, vs V, n=3
Experimental: Co-immunoprecipitation of proteins. Cell monolayers were washed twice with ice-cold PBS and incubated on ice with RIPA buffer supplemented with various protease inhibitors (Millpore). Cells were scraped with a rubber policeman and samples were rotated at 4° C. for 15 min. Lysates were centrifuged at 14,000×g at 4° C. for 15 min and the then pre-cleared with a 50% slurry of Protein G agarose beads (Santa Cruz Biotechnology) mixed with PBS. Following removal of the beads by centrifugation, cell lysates were incubated with an anti-ETB or anti-PGC-1α antibody (Santa Cruz Biotechnology) overnight at 4° C. The immunocomplex was captured by incubating lysates with 50% Protein G agarose bead slurry at 4° C. for 1 h. Beads were collected by pulse centrifugation, resuspended in non-reducing sample buffer, and then boiled for 10 min to dissociate the immunocomplex from the beads. Western analysis was performed with an anti-SF (Santa Cruz) or anti-sulfenic acid (R—SOH) antibody (Millpore) as described above.

[7] = aldosterone 10^−7 mol/L, 24 h, HPAECs

Question: With C[C@]12CCC(=O)C=C1CC[C@@H]1[C@@H]2[C@@H](O)C[C@]2(C=O)[C@@H](C(=O)CO)CC[C@@H]12 [aldosterone] as the molecule, how does the H2O2 accumulation (HPAECs [1]) read?
Answer: 100.6±3.5 μM/mg protein

Question: What about the “protein levels of NOX4” value ([2]; aldosterone 10^−7 mol/L) of the same molecule?
Answer: 157.0±4.4 % control

Question: What about the “protein levels of p22^phox” value ([2]; aldosterone 10^−7 mol/L) of the same molecule?
Answer: 829.5±295.6 % control

Question: And the “protein levels of NOX4” value ([2]; aldosterone 10^−8 mol/L)?
Answer: 146.3±12.4 % control

Question: What about the “protein levels of p22^phox” value ([2]; aldosterone 10^−8 mol/L) of the same molecule?
Answer: 961±226.2 % control

Question: And the “protein levels of NOX4” value ([2]; aldosterone 10^−9 mol/L)?
Answer: 134.6±16.5 % control

Question: What about the “protein levels of p22^phox” value ([2]; aldosterone 10^−9 mol/L) of the same molecule?
Answer: 1009.4±167.0 % control

Question: And the “total NO. metabolite (NOx: NO2^−+NO3^−) formation” value ([3]; ET-1 (10 nM) stimulated HPAECs, without or with aldosterone)?
Answer: 103.4±12.2 μM/μg protein

Question: And the “decrease in ETB-mediated NO2^− levels” value ([3]; aldosterone 10^−7 mol/L, 24 h, then ET-1 10 nM, HPAECs)?
Answer: 60.3%

Question: What about the “decrease in NO2^−/NO3^− ratio” value ([3]; aldosterone in ET-1-stimulated HPAECs) of the same molecule?
Answer: 62%

Question: What about the eNOS activity (eNOS) of the same molecule?
Answer: 7.6±2.4 [^14C] L-citrulline c.p.m./μg protein

Question: What about the “levels of 3-nitrotyrosine” value (HPAECs [4]) of the same molecule?
Answer: 46.8±6.6 arb. units

Question: And the “expression of ETA” value (ETA, ETB, eNOS; [7])?
Answer: Without influencing protein expression of ETB, or inducing

Question: And the “protein expression of ETB” value (ETA, ETB, eNOS; [7])?
Answer: Without influencing

Question: And the eNOS protein levels (ETA, ETB, eNOS; aldosterone-treated HPAECs)?
Answer: Without influencing

Question: And the “ETB disulfide bond formation (bands at 70 kDa and 90 kDa)” value [5]?
Answer: de novo formation of one or two disulfide bonds

Question: And the “increase in ETB-SOH protein expression levels” value [6]?
Answer: 639%
